# From publication PMC10944477 (Communications Biology, 2024)
# Columns and labels:
# Tet(56-3) = molecular target: T1, Tet(56-3) (Legionella massiliensis, UniProt A0A078L5T0); experiment: biochemical
# T1 construct: gene BN59_03621
# Tet(56-2) = molecular target: T2, Tet(56-2) (Legionella clemsonensis, UniProt A0A222NYA8); experiment: biochemical
# T2 construct: gene clem_00015
# Tet(X7) = type: biochemical, uncultured bacterium; details: […] NADPH, […] MgCl2, 100 mM TAPS pH 8.5, 0.4 µM enzyme; read-out: KM (apparent)
# E. coli + pZE24 Tet50_WT = experiment: microbe, parasite or virus in culture; details: Escherichia coli, 20 h
# Method: (§1) For high expression from the Plac/ara-1 promoter, 1 mM IPTG fully relieves repression by LacI[93]. Inoculated panels were incubated at 37 °C for 20 h with shaking, then scored by eye and using a plate reader.
# E. coli + pZE24 TetX7_WT = experiment: microbe, parasite or virus in culture; details: Escherichia coli, 20 h
# Method: as §1
# Tet(56-4) = details: read-out: KM (apparent); […] NADPH, […] MgCl2, 100 mM TAPS pH 8.5, 0.4 µM enzyme
# Tet(56-6) = details: read-out: KM (apparent); […] NADPH, […] MgCl2, 100 mM TAPS pH 8.5, 0.4 µM enzyme
# Tet(X13.2) = details: read-out: KM (apparent); […] NADPH, […] MgCl2, 100 mM TAPS pH 8.5, 0.4 µM enzyme
# Tet(58) = details: read-out: KM (apparent); […] NADPH, […] MgCl2, 100 mM TAPS pH 8.5, 0.4 µM enzyme
# Tet(56-7) = details: read-out: KM (apparent)
# Tet(56-5) = details: read-out: KM (apparent)
# [1] = test system: C[C@H]1c2cccc(O)c2C(=O)C2=C(O)[C@]3(O)C(=O)C(C(N)=O)=C(O)[C@@H](N(C)C)[C@@H]3[C@@H](O)[C@@H]21; experiment: purified protein; details: pH 8.5
# T1 sequence (A0A078L5T0 1-387 limits assumed): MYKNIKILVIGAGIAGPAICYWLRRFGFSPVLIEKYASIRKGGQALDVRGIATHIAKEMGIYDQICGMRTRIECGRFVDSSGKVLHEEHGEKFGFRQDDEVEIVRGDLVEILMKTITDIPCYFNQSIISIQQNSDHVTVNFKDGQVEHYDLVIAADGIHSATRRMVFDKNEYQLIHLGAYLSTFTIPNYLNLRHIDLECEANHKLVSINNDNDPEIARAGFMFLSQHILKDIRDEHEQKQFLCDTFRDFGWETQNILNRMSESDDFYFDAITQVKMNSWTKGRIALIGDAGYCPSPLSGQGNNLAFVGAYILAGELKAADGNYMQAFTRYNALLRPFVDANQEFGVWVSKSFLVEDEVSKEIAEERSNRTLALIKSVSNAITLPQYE
# T2 sequence (A0A222NYA8 1-387 limits assumed): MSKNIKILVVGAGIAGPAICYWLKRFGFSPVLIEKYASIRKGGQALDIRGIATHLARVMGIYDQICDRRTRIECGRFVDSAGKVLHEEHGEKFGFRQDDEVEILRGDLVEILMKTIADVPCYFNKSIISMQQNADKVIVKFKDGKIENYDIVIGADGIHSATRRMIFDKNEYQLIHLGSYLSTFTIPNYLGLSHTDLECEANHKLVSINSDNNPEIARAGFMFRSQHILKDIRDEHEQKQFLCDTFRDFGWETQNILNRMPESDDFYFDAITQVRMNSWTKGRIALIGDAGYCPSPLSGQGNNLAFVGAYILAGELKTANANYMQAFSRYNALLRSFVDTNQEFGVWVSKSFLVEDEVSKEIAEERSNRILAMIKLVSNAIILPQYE
Compound,Km (Tet(X7)) [µM],MIC (E. coli + pZE24 Tet50_WT) [µg/mL],MIC (E. coli + pZE24 TetX7_WT) [µg/mL],Km [1] [µM],also measured
"Cc1c2c(c(O)c3c(O)cccc13)C(=O)[C@]1(O)C(=O)C(C(N)=O)=C(O)[C@@H](N(C)C)[C@@H]1C2 [ATC, anhydrotetracycline]",,,,,IC50 (Tet(56-3)): 30 ± 6 µM; IC50 (Tet(56-2)): 6.4 ± 0.9 µM
"C[C@H]1c2cccc(O)c2C(=O)C2=C(O)[C@]3(O)C(=O)C(C(N)=O)=C(O)[C@@H](N(C)C)[C@@H]3[C@@H](O)[C@@H]21 [DOX, doxycycline]",5.62 ± 0.629,2,16,,
"CN(C)[C@@H]1C(=O)C(C(N)=O)=C(O)[C@@]2(O)C(=O)C3=C(O)c4c(O)cccc4[C@@](C)(O)[C@H]3C[C@@H]12 [TET, tetracycline]",2.97 ± 0.68,32,32,,Km (Tet(56-4)): 1.18 ± 0.562 µM; Km (Tet(56-6)): 0.441 ± 0.218 µM; Km (Tet(X13.2)): 23.4 ± 9.62 µM; Km (Tet(58)): 0.123 ± 0.067 µM; Km (Tet(56-7)): 2.6 ± 0.301 µM; Km (Tet(56-5)): 0.508 ± 0.181 µM
CN(C)c1cc(NC(=O)CNC(C)(C)C)c(O)c2c1C[C@H]1C[C@H]3[C@H](N(C)C)C(O)=C(C(N)=O)C(=O)[C@@]3(O)C(O)=C1C2=O [tigecycline],,0.5,2,,
Tet(56-2) (Legionella clemsonensis),,,,150 ± 42,
Tet(56-3) (Legionella massiliensis),,,,14.9 ± 1.4,
